Data: patent publication US20110230472A1, “RING-FUSED AZOLE DERIVATIVE HAVING PI3K-INHIBITING ACTIVITY” (Shionogi & Co., Ltd., priority 2008, published 2011)

Tests used:
[1] = system: Salmonella typhimurium TA98 line, TA100 line; test: FAT test (mutagenicity); design: key: When the mutagenicity is negative, the compound is shown as (−); When positive, the compound is shown as (+); conditions: TA98 and TA100 lines; non-metabolism-activation and metabolism-activation conditions
Description: 20 μL of Salmonella enterica subsp. typhimurium (Salmonella typhimurium TA98 line, TA100 line) cryopreserved was inoculated to 10 mL of liquid nutrient medium (2.5% Oxoid nutrient broth No. 2) and then precultured at 37° C. for 10 hours with shaking. Regarding TA98 line, after 9 mL of a bacterial suspension was centrifuged (2000×g, 10 minutes) to remove the culture solution, the bacteria was suspended in 9 mL of Micro F buffer solution (K2HPO4: 3.5 g/L, KH2PO4: 1 g/L, (NH4)2SO4: 1 g/L, tri-sodium citric acid dihydrate: 0.25 g/L, MgSO4.7H2O: 0.1 g/L), and then added to 110 mL of Exposure media (Micro F buffer solution containing biotin: 8 μg/mL, histidine: 0.2 μg/mL, glucose: 8 mg/mL). Regarding TA 100 line, 120 mL of Exposure media was added to 3.16 mL of the bacterial suspension to prepare a test bacterial suspension. 12 μL of a solution of a test substance in DMSO (diluted eight times in a common ratio of 2 from the maximum dose of 50 mg/mL); 12 μL of DMSO as a negative control; 50 μg/mL 4-nitroquinoline-1-oxide solution in DMSO for TA98 line or 0.25 μg/mL 2-(2-furyl)-3-(5-nitro-2-furyl)acrylamide solution in DMSO as a positive control for TA 100 line in the case of a non-metabolism-activation condition; 12 μL of 40 μg/mL 2-aminoanthracene solution in DMSO for TA98 line or 20 μg/mL of 2-aminoanthracene solution in DMSO for TA100 line in the case of a metabolism-activation condition; were each mixed with 588 μL of the test bacterial suspension (in the case of a metabolism activation condition, a mixed solution of 498 μL of the test bacterial suspension and 90 μL S9 mix) and then cultured at 37° C. at 90 minutes with shaking. 460 μL of the bacterial suspension to which a test substance was exposed was mixed with 230 μL of Indicator media (a Micro F buffer solution containing 8 μg/mL biotin, 0.2 μg/mL histidine, 8 mg/mL glucose, and 37.5 μg/mL bromocresol purple). 50 μL thereof was dispensed to microplate 48 wells/dose and then statically cultured at 37° C. for 3 days. In a well containing bacteria which obtained proliferation potency by mutation of the amino acid (histidine) synthetase gene, the change of pH caused the color change from purple to yellow. Thus, in 48 wells per dose, the number of the bacteria-proliferation wells in which the color changed to yellow was counted, compared with a group of negative controls, and then evaluated. When the mutagenicity is negative, the compound is shown as (−). When positive, the compound is shown as (+).

[2] = system: AKT phosphorylation in human monocyte-like cell line THP-1; test: AKT phosphorylation inhibitory activity in MCP-1-stimulated THP-1 cells (ELISA); format: cell-based; conditions: 1 μmol/L solution of each compound, MCP-1 stimulation, read-out: AKT phosphorylation inhibition ratio
How it was run: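 THP-1 cells (6.6×10^6/mL in HBSS) were preincubated 5 min at 37° C with compound at 1 μmol/L (0.2% DMSO), then stimulated with MCP-1 for 30 s. After lysis, phospho-Akt Ser473 was measured by sandwich ELISA (A450); inhibition ratio used no-MCP-1 samples as 0% activity.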

PI-3 kinase γ = PI-3 kinase γ (Homo sapiens, UniProt P48736); test: PI3Kγ inhibitory activity (Ki value), HTRF; format: biochemical; conditions: Ki=IC50/(1+10 μM ATP/Km)
Sequence of PI-3 kinase γ (P48736 whole entry): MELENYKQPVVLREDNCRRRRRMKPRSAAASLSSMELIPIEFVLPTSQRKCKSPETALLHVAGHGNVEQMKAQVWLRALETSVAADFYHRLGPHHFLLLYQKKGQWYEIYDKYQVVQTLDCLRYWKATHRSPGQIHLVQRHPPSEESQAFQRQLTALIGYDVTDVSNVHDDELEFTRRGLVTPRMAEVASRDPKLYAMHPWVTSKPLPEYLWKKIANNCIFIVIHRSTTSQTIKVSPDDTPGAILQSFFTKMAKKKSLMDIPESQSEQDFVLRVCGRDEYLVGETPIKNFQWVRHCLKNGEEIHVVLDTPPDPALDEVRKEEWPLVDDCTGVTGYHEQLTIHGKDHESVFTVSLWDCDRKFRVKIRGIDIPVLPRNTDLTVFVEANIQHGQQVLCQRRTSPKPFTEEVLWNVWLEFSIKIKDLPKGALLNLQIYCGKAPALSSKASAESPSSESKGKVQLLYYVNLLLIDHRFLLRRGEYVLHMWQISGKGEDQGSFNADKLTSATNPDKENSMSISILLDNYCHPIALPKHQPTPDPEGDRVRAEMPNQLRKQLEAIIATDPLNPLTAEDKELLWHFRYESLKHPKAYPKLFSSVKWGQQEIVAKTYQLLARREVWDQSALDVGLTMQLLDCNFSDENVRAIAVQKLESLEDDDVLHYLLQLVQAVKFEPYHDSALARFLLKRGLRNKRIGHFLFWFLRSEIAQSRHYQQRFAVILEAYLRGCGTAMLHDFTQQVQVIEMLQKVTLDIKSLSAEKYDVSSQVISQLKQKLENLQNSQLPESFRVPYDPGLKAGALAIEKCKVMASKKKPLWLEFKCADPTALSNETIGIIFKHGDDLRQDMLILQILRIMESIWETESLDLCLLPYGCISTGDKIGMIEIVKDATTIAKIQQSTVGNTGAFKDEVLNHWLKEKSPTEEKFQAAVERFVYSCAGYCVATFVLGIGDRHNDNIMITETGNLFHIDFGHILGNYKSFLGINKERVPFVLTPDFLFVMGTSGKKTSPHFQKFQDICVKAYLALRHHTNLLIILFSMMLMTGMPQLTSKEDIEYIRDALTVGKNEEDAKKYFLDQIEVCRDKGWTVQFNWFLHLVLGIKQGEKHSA
How it was run: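 IC50 was measured by HTRF over 50-0.05 μmol/L compound and fitted by logistic approximation or two-point linear regression. ATP Km came from Lineweaver-Burk plots of HTRF signal at 0.625-80 μmol/L ATP. Ki = IC50/(1+10 μM/Km).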

SMILES	mutagenicity (FAT test) [1]	inhibition [2] [%]	Ki (PI-3 kinase γ) [nM]
CNC(=O)Nc1cc2n(n1)CCN2c1ccc(S(C)(=O)=O)cc1 [Compound I-89]	(−)		
CN1CCc2cc(N3CCn4nc(NC(=O)c5cccnc5)cc43)ccc2C1=O [Compound I-347]		80.6	
COc1cc(N2CCc3nc(NC(=O)NCc4cc(=O)[nH]o4)sc3C2)nc(OC)n1 [Compound I-279]			29
COc1cc(N2CCc3nc(NC(=O)NCC(=O)O)sc3C2)nc(OC)n1 [Compound I-208]			22
CNC(=O)Nc1nc2c(s1)CN(c1ccnc(OC)n1)CC2 [Compound I-142]	(−)		
CN1CCc2cc(N3CCn4nc(NC(=O)c5ccco5)cc43)ccc2C1=O [Compound I-358]	(−)	95.9	
